For 31 compounds, IC50 results are on record in patent publication US10738056B2 (Aduro BioTech, Inc., priority 2017, dated 2020).

SMILES strings stand for the structures.

As a reminder, the IC50 is the point on the concentration scale where inhibition reaches its midpoint.

This test deals with Human cGAS amino acids 155-522 (Homo sapiens (Human), UniProt Q8N884). As to the kind of experiment: cGAS biochemical activity assay (ATP remaining, Kinase-Glo Max luminescence). The settings on record: human cGAS 155-522, ATP remaining (Kinase-Glo Max); read-out: cGAS IC50. A general note: In Kinase-Glo more light means more ATP remaining.
Sequence of Human cGAS amino acids 155-522 (Q8N884 157-522): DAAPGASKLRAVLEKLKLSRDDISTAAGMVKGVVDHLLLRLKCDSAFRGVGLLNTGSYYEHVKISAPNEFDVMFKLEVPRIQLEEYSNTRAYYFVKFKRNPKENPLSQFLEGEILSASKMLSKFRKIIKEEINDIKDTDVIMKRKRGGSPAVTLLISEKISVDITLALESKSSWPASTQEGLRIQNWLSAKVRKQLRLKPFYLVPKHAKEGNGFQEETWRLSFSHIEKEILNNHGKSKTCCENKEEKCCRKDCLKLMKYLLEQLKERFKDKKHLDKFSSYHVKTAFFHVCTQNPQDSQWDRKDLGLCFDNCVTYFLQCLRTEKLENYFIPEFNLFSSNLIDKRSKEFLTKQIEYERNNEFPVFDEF
In the case of `Cc1[nH]c2c(-c3ccccc3)c(C(F)(F)F)nn2c(=O)c1C(=O)Nc1ccccc1OC(F)(F)F` [Compound A1049, 5-methyl-7-oxo-3-phenyl-N-(2-(trifluoromethoxy)phenyl)-2-(trifluoromethyl)-4,7-dihydropyrazolo[1,5-a]pyrimidine-6-carboxamide], the IC50 is 20 to 250 µM.

Turning to `Cc1[nH]c2c(-c3ccccc3)c(C(F)(F)F)nn2c(=O)c1-c1nnc(N(C)C2CCCCC2)o1` [Compound D1043, 6-(5-(cyclohexyl(methyl)amino)-1,3,4-oxadiazol-2-yl)-5-methyl-3-phenyl-2-(trifluoromethyl)pyrazolo[1,5-a]pyrimidin-7(4H)-one], the IC50 was greater than 250 µM.

Regarding `Cc1[nH]c2c(-c3ccccc3)c(C(F)(F)F)nn2c(=O)c1-c1nnc(N2CCCCC2CCNS(C)(=O)=O)o1` (stereo not shown) [Compound D1073, N-(2-(1-(5-(5-methyl-7-oxo-3-phenyl-2-(trifluoromethyl)-4,7-dihydropyrazolo[1,5-a]pyrimidin-6-yl)-1,3,4-oxadiazol-2-yl)piperidin-2-yl)ethyl)methanesulfonamide], the IC50 is less than 20 µM.

For the compound `Cc1[nH]c2c(-c3ccccc3)c(C(F)(F)F)nn2c(=O)c1C(=O)Nc1ccccc1N1CCCCC1` [Compound A1055, 5-methyl-7-oxo-3-phenyl-N-(2-(piperidin-1-yl)phenyl)-2-(trifluoromethyl)-4,7-dihydropyrazolo[1,5-a]pyrimidine-6-carboxamide], the IC50 lay in the range of 20 to 250 µM.

For the compound `Cc1[nH]c2c(-c3ccccc3)c(C(F)(F)F)nn2c(=O)c1C(=O)Nc1cnccc1S(C)(=O)=O` [Compound A1109, 5-methyl-N-(4-(methylsulfonyl)pyridin-3-yl)-7-oxo-3-phenyl-2-(trifluoromethyl)-4,7-dihydropyrazolo[1,5-a]pyrimidine-6-carboxamide], the IC50 lay within 20 to 250 µM.

Turning to `Cc1[nH]c2c(C3CC3)c(C(F)(F)F)nn2c(=O)c1Cc1ccccc1` [Compound C1264, 6-benzyl-3-cyclopropyl-5-methyl-2-(trifluoromethyl)pyrazolo[1,5-a]pyrimidin-7(4H)-one], the IC50 is greater than 250 µM.

`Cc1[nH]c2c(-c3ccccc3)c(C(F)(F)F)nn2c(=O)c1Cc1nnc(C2CCCC2)o1` [Compound D1034, 6-((5-cyclopentyl-1,3,4-oxadiazol-2-yl)methyl)-5-methyl-3-phenyl-2-(trifluoromethyl)pyrazolo[1,5-a]pyrimidin-7(4H)-one]: the 50% inhibitory concentration (IC50) lay within 20 to 250 µM.

On to `COc1cccc2oc(-c3c(C)[nH]c4c(-c5ccc(C)cc5)c(C(F)(F)F)nn4c3=O)nc12` [Compound C1171], for which the IC50 lay within 20 to 250 µM.

Take `Cc1[nH]c2c(-c3ccccc3)c(C(F)(F)F)nn2c(=O)c1C(=O)Nc1cccc(N(S(C)(=O)=O)S(C)(=O)=O)c1` [Compound A1046, 5-methyl-N-(3-(N-(methylsulfonyl)methylsulfonamido)phenyl)-7-oxo-3-phenyl-2-(trifluoromethyl)-4,7-dihydropyrazolo[1,5-a]pyrimidine-6-carboxamide]: the IC50 is 20 to 250 µM.

With `Cc1[nH]c2c(-c3ccccc3)c(C(F)(F)F)nn2c(=O)c1-c1nnc(-c2ccccc2N)o1` [Compound D1082, 6-(5-(2-aminophenyl)-1,3,4-oxadiazol-2-yl)-5-methyl-3-phenyl-2-(trifluoromethyl)pyrazolo[1,5-a]pyrimidin-7(4H)-one], the IC50 was 20 to 250 µM.

As for `Cc1[nH]c2c(-c3ccccc3)c(C(F)(F)F)nn2c(=O)c1C(=O)Nc1ccccc1C#N` [Compound A1036, N-(2-cyanophenyl)-5-methyl-7-oxo-3-phenyl-2-(trifluoromethyl)-4,7-dihydropyrazolo[1,5-a]pyrimidine-6-carboxamide], the IC50 lay in the range of 20 to 250 µM.

As for `CC(=O)Nc1cccc(NC(=O)c2c(C)[nH]c3c(-c4ccccc4)c(C(F)(F)F)nn3c2=O)c1` [Compound A1039, N-(3-acetamidophenyl)-5-methyl-7-oxo-3-phenyl-2-(trifluoromethyl)-4,7-dihydropyrazolo[1,5-a]pyrimidine-6-carboxamide], the IC50 lay within 20 to 250 µM.

As to `Cc1[nH]c2c(-c3ccccc3)c(C(F)(F)F)nn2c(=O)c1-c1nc(C(N)=O)co1` [Compound C1102, 2-(5-methyl-7-oxo-3-phenyl-2-(trifluoromethyl)-4,7-dihydropyrazolo[1,5-a]pyrimidin-6-yl)oxazole-4-carboxamide], the IC50 was 20 to 250 µM.

Take `COc1cccc2oc(-c3c(C)[nH]c4c(-c5cccnc5)c(C(F)(F)F)nn4c3=O)nc12` [Compound C1129, 6-(4-methoxybenzo[d]oxazol-2-yl)-5-methyl-3-(pyridin-3-yl)-2-(trifluoromethyl)pyrazolo[1,5-a]pyrimidin-7(4H)-one]: the IC50 fell in the range of 20 to 250 µM.

With `COc1cccc(NC(=O)c2c(C)[nH]c3c(-c4ccccc4)c(C(F)(F)F)nn3c2=O)c1Br` [Compound A1131, N-(2-bromo-3-methoxyphenyl)-5-methyl-7-oxo-3-phenyl-2-(trifluoromethyl)-4,7-dihydropyrazolo[1,5-a]pyrimidine-6-carboxamide], the concentration for half-maximal inhibition (IC50) lay within 20 to 250 µM.

On to `COc1cccn2cc(-c3c(C)[nH]c4c(-c5ccccc5)c(C(F)(F)F)nn4c3=O)nc12` [Compound C1044, 6-(8-methoxyimidazo[1,2-a]pyridin-2-yl)-5-methyl-3-phenyl-2-(trifluoromethyl)pyrazolo[1,5-a]pyrimidin-7(4H)-one], for which the IC50 is less than 20 µM.

In the case of `COc1cccc2oc(-c3c(C)[nH]c4c(-c5ccccc5)c(C#CC5CC5)nn4c3=O)nc12` [Compound C1228, 2-(cyclopropylethynyl)-6-(4-methoxybenzo[d]oxazol-2-yl)-5-methyl-3-phenylpyrazolo[1,5-a]pyrimidin-7(4H)-one], the IC50 lay within 20 to 250 µM.

As to `COc1cccc2oc(-c3c(OCCN(C)C)[nH]c4c(-c5ccccc5)c(C(F)(F)F)nn4c3=O)nc12` [Compound C1067, 5-(2-(dimethylamino)ethoxy)-6-(4-methoxybenzo[d]oxazol-2-yl)-3-phenyl-2-(trifluoromethyl)pyrazolo[1,5-a]pyrimidin-7(4H)-one], the IC50 was greater than 250 µM.

For the compound `Cc1nnc(Cc2c(C)[nH]c3c(-c4ccccc4)c(C(F)(F)F)nn3c2=O)o1` [Compound D1032, 5-methyl-6-((5-methyl-1,3,4-oxadiazol-2-yl)methyl)-3-phenyl-2-(trifluoromethyl)pyrazolo[1,5-a]pyrimidin-7(4H)-one], the IC50 lay in the range of 20 to 250 µM.

For `Cc1[nH]c2c(-c3ccccc3)c(C(F)(F)F)nn2c(=O)c1-c1nc2ccccc2n1CC1CCCC1` [Compound C1235, 6-(1-(cyclopentylmethyl)-1H-benzo[d]imidazol-2-yl)-5-methyl-3-phenyl-2-(trifluoromethyl)pyrazolo[1,5-a]pyrimidin-7(4H)-one], the IC50 was 20 to 250 µM.

With `Cc1[nH]c2c(-c3ccccc3)c(C(F)(F)F)nn2c(=O)c1C(=O)Nc1ccnn1C` [Compound A1078, 5-methyl-N-(1-methyl-1H-pyrazol-5-yl)-7-oxo-3-phenyl-2-(trifluoromethyl)-4,7-dihydropyrazolo[1,5-a]pyrimidine-6-carboxamide], the IC50 was in the range of 20 to 250 µM.

Turning to `Cc1[nH]c2c(-c3ccccc3)c(C(F)(F)F)nn2c(=O)c1-c1nnc(C2CCCCC2)s1` [Compound D1006, 6-(5-cyclohexyl-1,3,4-thiadiazol-2-yl)-5-methyl-3-phenyl-2-(trifluoromethyl)pyrazolo[1,5-a]pyrimidin-7(4H)-one], the IC50 is less than 20 µM.

Regarding `Cc1noc(C)c1NC(=O)c1c(C)[nH]c2c(-c3ccccc3)c(C(F)(F)F)nn2c1=O` [Compound A1019, N-(3,5-dimethylisoxazol-4-yl)-5-methyl-7-oxo-3-phenyl-2-(trifluoromethyl)-4,7-dihydropyrazolo[1,5-a]pyrimidine-6-carboxamide], the IC50 is greater than 250 µM.

Regarding `COCc1[nH]c2c(-c3ccccc3)c(C(=O)O)nn2c(=O)c1-c1nc2c(OC)cccc2o1` [Compound C1090, 6-(4-methoxybenzo[d]oxazol-2-yl)-5-(methoxymethyl)-7-oxo-3-phenyl-4,7-dihydropyrazolo[1,5-a]pyrimidine-2-carboxylic acid], the IC50 was in the range of 20 to 250 µM.

For `Cc1[nH]c2c(-c3ccccc3)c(C(F)(F)F)nn2c(=O)c1-c1nc2cc(Cl)ccc2o1` [Compound C1028, 6-(5-chlorobenzo[d]oxazol-2-yl)-5-methyl-3-phenyl-2-(trifluoromethyl)pyrazolo[1,5-a]pyrimidin-7(4H)-one], the IC50 is greater than 250 µM.

For `Cc1cccc(-c2c(C)[nH]c3c(-c4ccccc4)c(C(F)(F)F)nn3c2=O)c1` [Compound C1002, 5-methyl-3-phenyl-6-(m-tolyl)-2-(trifluoromethyl)pyrazolo[1,5-a]pyrimidin-7(4H)-one], the IC50 lay within 20 to 250 µM.

On to `COc1cccc2oc(-c3c(C(=O)NCCN(C)C)[nH]c4c(-c5ccccc5)c(C(F)(F)F)nn4c3=O)nc12` [Compound C1212, N-(2-(dimethylamino)ethyl)-6-(4-methoxybenzo[d]oxazol-2-yl)-7-oxo-3-phenyl-2-(trifluoromethyl)-4,7-dihydropyrazolo[1,5-a]pyrimidine-5-carboxamide], for which the IC50 was 20 to 250 µM.

For the compound `Cc1[nH]c2c(-c3ccccc3)c(C(F)(F)F)nn2c(=O)c1C(=O)Nc1ccon1` [Compound A1020, N-(isoxazol-3-yl)-5-methyl-7-oxo-3-phenyl-2-(trifluoromethyl)-4,7-dihydropyrazolo[1,5-a]pyrimidine-6-carboxamide], the IC50 was 20 to 250 µM.

For the compound `CC(=O)NCCc1c(C)[nH]c2c(-c3ccccc3)c(C(F)(F)F)nn2c1=O` [Compound B1013, N-(2-(5-methyl-7-oxo-3-phenyl-2-(trifluoromethyl)-4,7-dihydropyrazolo[1,5-a]pyrimidin-6-yl)ethyl)acetamide], the IC50 was in the range of 20 to 250 µM.

For `Cc1[nH]c2c(-c3ccccc3)c(C(F)(F)F)nn2c(=O)c1C(=O)NC1CCCCC1` [Compound A1010, N-cyclohexyl-5-methyl-7-oxo-3-phenyl-2-(trifluoromethyl)-4,7-dihydropyrazolo[1,5-a]pyrimidine-6-carboxamide], the IC50 lay in the range of 20 to 250 µM.

In the case of `COc1ccnc(-c2nnc(-c3c(C)[nH]c4c(-c5ccccc5)c(C(F)(F)F)nn4c3=O)o2)n1` [Compound D1076, 6-(5-(4-methoxypyrimidin-2-yl)-1,3,4-oxadiazol-2-yl)-5-methyl-3-phenyl-2-(trifluoromethyl)pyrazolo[1,5-a]pyrimidin-7(4H)-one], the IC50 lay within 20 to 250 µM.
